Entries after “also recorded” stand apart in the source; their conditions may differ.

Test [1] concerns mouse model of pulmonary sarcoidosis. Description: Mouse model of pulmonary sarcoidosis, lung inflammation grading (Example 1). In kind it is in vivo, C57B1/6 mice. Particulars: sarcoidosis mice, treated two weeks, vs saline-treated sarcoidosis group; MIA-602 5 μg/day intraperitoneal; FIGS. 1A-E. The protocol: Granulomatous reaction in the mouse lung was developed as previously described (Zhang et al., Front Immunol 2019; 10: 2888).
(§1) The detail of the methodology used for confocal microscopy is discussed in Zhang et al., Front Immunol 2019; 10: 2888. To summarize, mice were killed on day 14, and the left lungs were harvested. Lungs were filled with 10% buffered formalin and fixed in formalin for at least 72 h before IHC staining. H&E staining was used to determine inflammatory pathology.
(§2) Lung inflammation was scored using the three fields with the highest infiltrate's intensity at 100× power magnification as previously described (Zhang et al., Front Immunol 2019; 10: 2888). The area of inflammation was measured and averaged for the three examined high-power fields.
A mouse model of pulmonary sarcoidosis was established in C57B1/6 mice by administering microparticles intratracheally. The tongue was pulled out with a small spatula and microparticles were inserted into the trachea using a 20 G angio-catheter tube at the time of laryngeal opening and advanced to main bronchus until reach to resistant. After tube placement, microparticles were administered: a first dose of 5×10^8 CFU of M. abscessus in 50 μL with three subsequent doses of 2×10^8 CFU of M. abscessus in 20 μL. A control group received only 20 μL PBS intratracheally. Mice receiving microparticles developed noncaseating granuloma in the lung, as observed use H&E staining and immunohistochemistry staining for CD68 macrophage marker, CD4 marker, and PD-L1.
The first sarcoidosis group received MIA-602 (5 μg/day), administered via intraperitoneal injection. The second sarcoidosis group received α-melanocyte stimulating hormone (α-MSH), the third sarcoidosis group received steroid treatment (methyl-prednisone, the current first line treatment for sarcoidosis), and the fourth group received only saline. Mice were sacrificed after two weeks, and inflammation in lung samples was graded.

Test [2] has as its system sarcoidosis mice model. Nature of the test: NOS2 and nitrotyrosine staining of lung in sarcoidosis mice model (Example 6). In kind it is in vivo. Particulars: daily intraperitoneal MIA-602 5 μg, lung harvested after three weeks. How it is done: (§3) For immunohistochemistry, 5-μm paraffin sections were processed by deparaffinization and rehydration followed by endogenous peroxidase blocking (1% H2O2 in methanol for 20 minutes) and antigen retrieval (boiled in 10 mM citrate buffer for 30 minutes). Tissue sections were blocked with 2% goat or horse serum (Vector Laboratories) and incubated with antibody CD68 (Proteintech, Cat #25747-1-AP), PD-1 (Cell Signaling, cat #84651), PD-L1 (Proteintech, Cat #17952-1-AP), CD30 (Lsbio, cat #LS-c162069) CD3 (Cell Signaling, cat #99940), iNOS (Invitrogen, cat #PAI-036), or Nitrotyrosine (Novus, NBP2-54606) over night at 4° C., washed with TBST five times, then exposed to secondary antibodies (Vector Laboratories, cat #PI-2000). Immunoreactivity was detected using the ABC Elite kit (Vector Laboratories). DAB was used as final chromogen and hematoxylin as the nuclear counterstain. Negative controls for all antibodies were made by replacing the primary antibody with non-immunogen IgG.
Inducible nitric oxide synthases (iNOS) produces nitric oxide and has a crucial role in granuloma development. iNOS is expressed in macrophages after exposure to bacterial lipopolysaccharides and IFNγ (Facchetti et al., Am J Pathol 1999; 154: 145-152). […] Lung tissue was harvested after three weeks and tissue stained with NOS2 and nitrotyrosine. […] The finding was not statistically significant.

The test system of test [3] is sarcoidosis mice model. Description: Flow cytometry of lung single cells in sarcoidosis mice model (Example 5). In kind it is in vivo. Particulars: MIA-602 5 μg, two weeks. How it is done:
Mice were sacrificed on day 14, and the left lungs were harvested for pathology after perfusing the right ventricle with 10 ml of PBS.
The upper half of left lung tissue (without trachea, main bronchus and branches) was removed and rinsed by PBS to clean off blood. The tissue was minced and dispersed with a scissors to increase total surface area. To develop single cell suspension, the rubber end of a 5 ml plastic syringe was used to mesh cells through a 100 μm cell strainer with continuous rinse using ice-cold RPMI 1640. Cell suspension was again meshed through a 70 μm cell strainer and rinsed thoroughly with 3 ml of washing buffer containing DNAse followed by 15 ml of DNAse-free washing buffer. The sample was centrifuged at 286×g and 18° C. for 5 min, and the supernatant was discarded (Posel et al. J Vis Exp 2016: 53658).
The cells (10^6 cells/ml) were resuspended in 100 μl protein blocking solution with 5 μl fluorescent conjugated antibodies, CD8 (Biolegend Cat #100714, CD45 (Biolegend Cat #103130), CD68 (Biolegend Cat #137004), PD-1 (Biolegend Cat #135219), PD-L1 (Biolegend Cat #124308), CD4 (Biolegend Cat #100510), CD11b (Biolegend Cat #101243), CD11c (Biolegend Cat #117318), F4/80 (Biolegend Cat #123146), or IFNg (Biolegend Cat #505836). Samples were analyzed on a BD LSR II flow cytometer using BD FACSDiva software, and data analysis was performed using Flowjo software (TreeStar, Ashland, OR). Cell populations were identified using sequential gating strategy; the expression of activation markers was presented as median fluorescence intensity. Lung immune cells were classified based on FC marker expression as previously described (Misharin et al., Am J Respir Cell Mol Biol 2013; 49: 503-510).
Mice were grouped as control, challenged with microparticles and treated with saline, challenged and treated with MIA-602 (5 μg), and challenged and treated with methyl prednisolone (100 μg). After two weeks, lungs were harvested from all groups, and lung single cells were generated for flow cytometry analysis.

Test [4] has as its system mouse pulmonary granulomatous model. Description: Mouse pulmonary granulomatous model, H&E and IHC scoring of lung (Example 4). The test is classed as in vivo, C57B1/6 mice. How it is done: as §1, §3, §2
A mouse pulmonary granulomatous model was established for studying type I IFN pathways after exposure to M. abscessus cell wall. The model is applicable for pulmonary sarcoidosis studies due to its characteristics of noninfectious lung granulomatous model. C57B1/6 mice were used to develop the model (Zhang et al., Front Immunol 2019; 10: 2888).
Mice were treated with 5 μg of a peptide of the disclosure, MIA-602, per day via intraperitoneal injection. After two weeks, the mice were sacrificed, and lung inflammation was graded by a lung pathologist. Lung samples were stained with H&E, CD68, PD1, PD-L1, and CD30, and scored based on percentage of cells expressing each marker.

Regarding “[PhAc-Ada^0-Tyr^1, D-Arg^2, Fpa5^6, Ala^8, Har^9, Tyr(Me)^10, His^11, Orn^12, Abu^15, His^20, Orn^21, Nle^27, D-Arg^28, Har^29]hGH-RH(1-29)NH2 [MIA-602]”, the “inflammation in lung samples (inflammation score)” value in test [1] is listed as “lower inflammation scores”. In addition, the NOS2 expression entry with sarcoidosis mice model [2] (FIG. 7) is recorded as “reduced following MIA-602 treatment. The finding was not statistically significant”. In addition, the nitrotyrosine levels result in the test with sarcoidosis mice model [2] (FIG. 8) is given as “reduced the nitrotyrosine levels, but the reduction was not statistically significant”. Further, the “population of CD45+CD68 cells” value in the test with sarcoidosis mice model [3] (FIG. 6A) is recorded as “significantly reduced”. The “percentage of CD45+CD68+ cells that expressed PD-1” value in the test on sarcoidosis mice model [3] (FIG. 6B) was “significantly increased”. Besides, in the test with sarcoidosis mice model [3] (FIG. 6C), the “population of CD45+CD68+PD-L1 cells” value was “a higher percentage was detected”. In test [4] (5 μg MIA-602 per day intraperitoneal, two weeks, vs granuloma group, H&E), the lung inflammation score entry is recorded as “lower inflammation scores; also recorded: almost normalized”. Also, in test [4] (5 μg MIA-602 per day intraperitoneal, two weeks, IHC), the “CD30 cells in lung” value was “nonsignificantly reduced”. Further, the “percentage of CD68+ cells in the lung” value in test [4] (5 μg MIA-602 per day intraperitoneal, two weeks, IHC, changes not statistically significant) is “decreased”. Besides, the “PD-1+ cells in the lung” value in test [4] (5 μg MIA-602 per day intraperitoneal, two weeks, IHC, same pattern as CD68+ (increased in granuloma, decreased with MIA-602, not significant)) is on record as “This pattern was seen”. Further, the “inflammatory cell numbers in lung tissue” value in test [4] (summary of animal model study) is “reduced inflammatory cell numbers significantly”.

The record behind these values is patent publication US20250332223A1, “GHRH ANTAGONISTS FOR USE IN A METHOD OF TREATING SARCOIDOSIS” (University of Miami, priority 2019, published 2025).
